Reference: DBAASP
In brackets after ≈: the same amount, converted by molar mass. Several values for one entry are separate records, joined by “and”; a condition that tells them apart may be missing. Equal values may be shown once. Each block holds one compound with its values, some of them ahead of it.

Legend:
Test in all cases: ≥ marks a high value that may be exact or a test limit, other limits are often not marked, values filed in µg/mL are converted to µM
[1] = tested on: Pseudomonas aeruginosa ATCC 14502
[2] = tested on: Escherichia coli ATCC 25922
[3] = tested on: Staphylococcus aureus ATCC 12600
[4] = tested on: Staphylococcus aureus ATCC 43300
[5] = tested on: Micrococcus luteus ATCC 49732
Micrococcus luteus A270 = tested on: Micrococcus luteus A270
Pseudomonas aeruginosa = tested on: Pseudomonas aeruginosa
[6] = tested on: Staphylococcus aureus ATCC 6538
Escherichia coli SBS 363 = tested on: Escherichia coli SBS 363
[7] = tested on: Escherichia coli ATCC 11775
[8] = tested on: Staphylococcus aureus CCARM 3089
[9] = tested on: Trichosporon beigelii KCTC 7707
[10] = tested on: Staphylococcus aureus CCARM 3090
[11] = tested on: Pseudomonas aeruginosa KCTC 1637
[12] = tested on: Staphylococcus aureus CCARM 3108
[13] = tested on: Staphylococcus aureus C623
Escherichia coli UB1005 = tested on: Escherichia coli UB1005
[14] = tested on: Pseudomonas aeruginosa K799
[15] = tested on: Staphylococcus aureus CCARM 3114
[16] = tested on: Salmonella typhimurium KCTC 1926
[17] = tested on: Escherichia coli CGSC 4908
Staphylococcus aureus = tested on: Staphylococcus aureus
[18] = tested on: Salmonella enterica serovar typhimurium MS7953s
[19] = tested on: Salmonella typhimurium CCARM 8009
Escherichia coli DC2 = tested on: Escherichia coli DC2
[20] = tested on: Aeromonas salmonicida 99-1
[21] = tested on: Escherichia coli KCTC 1682
Candida albicans C627 = tested on: Candida albicans C627
[22] = tested on: Staphylococcus aureus CCARM 3126
[23] = tested on: Escherichia coli CCARM 1229
[24] = tested on: Staphylococcus epidermidis C621
[25] = tested on: Pseudomonas aeruginosa Z61
[26] = tested on: Salmonella typhimurium CCARM 8013
[27] = tested on: Candida albicans KCTC 7270
[28] = tested on: Aeromonas salmonicida 97-4
[29] = tested on: Escherichia coli CCARM 1238
[30] = tested on: Salmonella enterica subsp. enterica serovar Typhimurium ATCC 14028s
[31] = tested on: Salmonella typhimurium CCARM 8007
[32] = tested on: Candida albicans CCARM 14001
[33] = tested on: Staphylococcus aureus KCTC 1621
[34] = tested on: Staphylococcus aureus SAP 0017
Bacillus subtilis C971 = tested on: Bacillus subtilis C971
[35] = tested on: Pseudomonas aeruginosa H188
[36] = tested on: Salmonella typhimurium C610
[37] = tested on: Staphylococcus aureus ATCC 25923
[38] = tested on: Salmonella typhimurium C587
[39] = tested on: Enterococcus faecalis C625
[40] = tested on: Pseudomonas aeruginosa H187
[41] = tested on: Corynebacterium xerosis C875
[42] = tested on: Staphylococcus aureus ATCC 2592
Bacillus subtilis = tested on: Bacillus subtilis
[43] = tested on: Candida albicans ATCC 2002
[44] = tested on: Helicobacter pylori NCTC 11637
Shigella dysenteriae = tested on: Shigella dysenteriae

MIC [1]: 6 µM (≈ 14.5 µg/mL)
MIC [2]: 6.6 µM (≈ 15.9 µg/mL)
MIC [3]: 0.4 µM (≈ 0.964 µg/mL)
MIC [4]: 26.5 µM (≈ 63.9 µg/mL)
MIC [5]: 0.8 µM (≈ 1.93 µg/mL)
MIC (Micrococcus luteus A270): 6 µM (≈ 14.5 µg/mL)
MIC (Pseudomonas aeruginosa): 6.6 µM (≈ 15.9 µg/mL)
MIC [6]: 6 µM (≈ 14.5 µg/mL)
MIC (Escherichia coli SBS 363): 6 µM (≈ 14.5 µg/mL)
MIC [7]: 0.8 µM (≈ 1.93 µg/mL)
Structure (SMILES): CC[C@H](C)[C@H](NC(=O)[C@H](C)NC(=O)[C@H](C)NC(=O)[C@H](CCC(=O)O)NC(=O)[C@H](CCCCN)NC(=O)CNC(=O)[C@@H](NC(=O)[C@H](CC(N)=O)NC(=O)[C@H](CCCCN)NC(=O)[C@@H](NC(=O)[C@@H](NC(=O)[C@H](CO)NC(=O)[C@H](Cc1c[nH]c2ccccc12)NC(=O)[C@H](CC(C)C)NC(=O)CN)[C@@H](C)O)[C@@H](C)CC)C(C)C)C(=O)N[C@@H](C)C(=O)N[C@@H](C)C(=O)NCC(=O)N[C@@H](CCCCN)C(=O)N[C@@H](C)C(=O)N[C@@H](C)C(=O)N[C@@H](CC(C)C)C(=O)NCC(=O)N[C@@H](C)C(=O)N[C@@H](CC(C)C)C(N)=O [GLWSTIKNVGKEAAIAAGKAALGAL]

MIC [8]: 2 µM (≈ 4.35 µg/mL)
MIC [9]: 4 µM and 8 µM
MIC [10]: 8 µM (≈ 17.4 µg/mL)
MIC [11]: 4 µM and 8 µM
MIC [12]: 2 µM (≈ 4.35 µg/mL)
MIC [13]: 14.7 µM (≈ 32 µg/mL)
MIC (Escherichia coli UB1005): 0.919 µM (≈ 2 µg/mL)
MIC [14]: 1.84 µM (≈ 4 µg/mL)
MIC [15]: 4 µM (≈ 8.7 µg/mL)
MIC [16]: 1 µM and 2 µM
MIC [17]: 0.459 µM (≈ 0.999 µg/mL)
MIC (Staphylococcus aureus): 2.83 µM (≈ 6.15 µg/mL)
MIC [18]: 0.23 µM (≈ 0.5 µg/mL)
MIC [19]: 16 µM (≈ 34.8 µg/mL)
MIC (Escherichia coli DC2): 0.23 µM (≈ 0.5 µg/mL)
MIC [20]: 0.919 µM (≈ 2 µg/mL)
MIC [21]: 2 µM and 4 µM
MIC (Candida albicans C627): 3.68 µM (≈ 7.99 µg/mL)
MIC [22]: 4 µM (≈ 8.7 µg/mL)
MIC [23]: 8 µM (≈ 17.4 µg/mL)
MIC [24]: 7.35 µM (≈ 16 µg/mL)
MIC [25]: 0.459 µM (≈ 0.999 µg/mL)
MIC [26]: 4 µM (≈ 8.7 µg/mL)
MIC [27]: 8 µM and 16 µM
MIC [28]: 0.459 µM (≈ 0.999 µg/mL)
MIC [29]: 4 µM (≈ 8.7 µg/mL)
MIC (Pseudomonas aeruginosa): 4 µM (≈ 8.7 µg/mL)
MIC [30]: 7.35 µM (≈ 16 µg/mL)
MIC [31]: 4 µM (≈ 8.7 µg/mL)
MIC [32]: 8 µM (≈ 17.4 µg/mL)
MIC [33]: 4 µM and 8 µM
Structure (SMILES): CC[C@H](C)[C@H](NC(=O)[C@H](C)NC(=O)[C@H](C)NC(=O)[C@H](CCC(N)=O)NC(=O)CNC(=O)[C@H](CC(C)C)NC(=O)[C@H](Cc1cnc[nH]1)NC(=O)[C@H](CCCCN)NC(=O)[C@H](C)NC(=O)CNC(=O)[C@H](CCCCN)NC(=O)[C@H](CCCNC(=N)N)NC(=O)[C@H](CC(C)C)NC(=O)[C@H](Cc1c[nH]c2ccccc12)NC(=O)[C@H](CCCCN)NC(=O)[C@H](CCCCN)NC(=O)[C@H](Cc1c[nH]c2ccccc12)NC(=O)CN)C(=O)N[C@@H](CCCCN)C(C)=O [GWKKWLRKGAKHLGQAAIK]

MIC [34]: 10.9 µM (≈ 32.4 µg/mL)
MIC (Bacillus subtilis C971): 1.7 µM (≈ 5.07 µg/mL)
MIC (Escherichia coli UB1005): 5.43 µM (≈ 16.2 µg/mL)
MIC [35]: 10.9 µM (≈ 32.4 µg/mL)
MIC (Escherichia coli DC2): 1.7 µM (≈ 5.07 µg/mL)
MIC [36]: 4.31 µM (≈ 12.9 µg/mL)
MIC [37]: 10.9 µM (≈ 32.4 µg/mL)
MIC [24]: 5.43 µM (≈ 16.2 µg/mL)
MIC [38]: 10.9 µM (≈ 32.4 µg/mL)
MIC [39]: 17.2 µM (≈ 51.5 µg/mL)
MIC [40]: 6.86 µM (≈ 20.5 µg/mL)
MIC [41]: 0.848 µM (≈ 2.53 µg/mL)
Structure (SMILES): CC[C@H](C)[C@H](NC(=O)[C@H](C)NC(=O)[C@H](CCCCN)NC(=O)[C@H](CC(C)C)NC(=O)[C@H](C)NC(=O)[C@@H](NC(=O)[C@H](Cc1cnc[nH]1)NC(=O)[C@H](CC(C)C)NC(=O)[C@@H](NC(=O)[C@@H](NC(=O)[C@H](CCCCN)NC(=O)[C@@H](NC(=O)[C@H](C)NC(=O)[C@H](CC(C)C)NC(=O)[C@H](CCCCN)NC(=O)[C@H](Cc1ccccc1)NC(=O)[C@@H](NC(=O)[C@H](CCCCN)NC(=O)[C@H](CC(C)C)NC(=O)[C@H](Cc1ccccc1)NC(=O)[C@H](CO)NC(=O)[C@H](CCCCN)NC(=O)[C@H](Cc1c[nH]c2ccccc12)NC(=O)[C@H](CCCCN)NC(C)=O)[C@@H](C)O)C(C)C)[C@@H](C)O)C(C)C)[C@@H](C)O)C(=O)N[C@@H](CO)C(=O)N[C@@H](CO)C(N)=O [KWKSFLKTFKLAVKTVLHTALKAISS]

MIC [42]: 4.91 µM (≈ 15 µg/mL)
MIC [2]: 19.6 µM (≈ 60 µg/mL)
MIC (Bacillus subtilis): ≥ 39.3 µM
MIC [43]: 9.82 µM (≈ 30 µg/mL)
MIC [44]: 9.82 µM (≈ 30 µg/mL)
MIC (Shigella dysenteriae): ≥ 39.3 µM
Structure (SMILES): CC[C@H](C)[C@H](NC(=O)[C@H](CCC(N)=O)NC(=O)[C@H](CCCCN)NC(=O)[C@H](Cc1c[nH]c2ccccc12)NC(=O)[C@H](CC(C)C)NC(=O)[C@H](CCC(N)=O)NC(=O)[C@@H]1CCCN1C(=O)[C@H](CC(C)C)NC(=O)[C@H](CCCCN)NC(=O)[C@H](C)NC(=O)[C@H](CCC(=O)O)NC(=O)[C@H](CCCCN)NC(=O)[C@@H](NC(=O)[C@H](CCSC)NC(=O)[C@@H](NC(=O)[C@@H](NC(=O)[C@@H](NC(=O)[C@@H](N)CO)[C@@H](C)CC)[C@@H](C)CC)[C@@H](C)O)[C@@H](C)O)C(=O)N[C@@H](C)C(=O)N[C@H]1CSSC[C@@H](C(=O)O)NC(=O)[C@H]([C@@H](C)O)NC(=O)[C@H](CC(N)=O)NC(=O)[C@H](Cc2ccc(O)cc2)NC(=O)[C@H](CC(C)C)NC(=O)[C@H](CCCN=C(N)N)NC1=O [SIITMTKEAKLPQLWKQIACRLYNTC]
